Results taken from ChEMBL document CHEMBL3600376, “Antibacterial activity of diketopiperazines isolated from a marine fungus using t-butoxycarbonyl group as a simple tool for purification” (2015).
≈ marks a conversion by molar mass, not a printed value.

Experiments:
Format in all cases: functional
[1] = system: Staphylococcus aureus; assay: Antibacterial activity against Staphylococcus aureus ATCC 25923 after 18 hrs by agar diffusion method; conditions: ATCC 25923, 18 h
[2] = system: Bacillus subtilis; assay: Antibacterial activity against Bacillus subtilis NCTC 2116 after 18 hrs by agar diffusion method; conditions: NCTC 2116, 18 h
[3] = system: Escherichia coli; assay: Antibacterial activity against Escherichia coli ATCC 25922 after 18 hrs by agar diffusion method; conditions: ATCC 25922, 18 h

SMILES | MIC [1] [µg/mL] | MIC [2] [µg/mL] | MIC [3] [µg/mL]
CC(C)[C@@H]1NC(=O)[C@H]2CCCN2C1=O | 15.6 (≈ 79.5 µM) | 16 (≈ 81.5 µM) | 18.5 (≈ 94.3 µM)
CC(C)(C)OC(=O)n1cc(C[C@@H]2NC(=O)[C@@H]3CCCN3C2=O)c2ccccc21 | 8.9 (≈ 23.2 µM) | 6.7 (≈ 17.5 µM) | > 20
O=C1N[C@@H](Cc2ccc(O)cc2)C(=O)N2CCC[C@@H]12 | 10.2 (≈ 39.2 µM) | 8.7 (≈ 33.4 µM) | > 20
O=C1N[C@@H](Cc2c[nH]c3ccccc23)C(=O)N2CCC[C@@H]12 [BREVIANAMIDE F] | 12.6 (≈ 44.5 µM) | 11.9 (≈ 42 µM) | > 20
CC(C)C[C@@H]1NC(=O)[C@@H]2CCCN2C1=O | 18.8 (≈ 89.4 µM) | 15.7 (≈ 74.7 µM) | > 20
O=C1N[C@@H](Cc2ccccc2)C(=O)N2CCC[C@@H]12 | 15.1 (≈ 61.8 µM) | 17.2 (≈ 70.4 µM) | > 20
CCC(C)[C@@H]1NC(=O)[C@@H]2CCCN2C1=O (stereo partly specified) | 17.1 (≈ 81.3 µM) | 15.8 (≈ 75.1 µM) | > 20
CC1(C)S[C@@H]2[C@H](NC(=O)[C@H](N)c3ccc(O)cc3)C(=O)N2[C@H]1C(=O)O [AMOXICILLIN] | 0.05 (≈ 0.137 µM) | 0.03 (≈ 0.0821 µM) | 0.8 (≈ 2.19 µM)
CC(C)=CCc1c(C[C@H]2C(=O)N3CCC[C@H]3C(=O)N2C(=O)OC(C)(C)C)c2ccccc2n1C(=O)OC(C)(C)C | 2.2 (≈ 3.99 µM) | 2.1 (≈ 3.81 µM) | 19 (≈ 34.4 µM)
CC(C)[C@@H]1NC(=O)[C@@H]2CCCN2C1=O | 16.3 (≈ 83.1 µM) | 18.2 (≈ 92.7 µM) | > 20
COc1ccc2c3c(n(C(=O)OC(C)(C)C)c2c1)[C@H](C=C(C)C)N1C(=O)[C@@H]2CCCN2C(=O)[C@@H]1C3 | 2.8 (≈ 5.84 µM) | 3.3 (≈ 6.88 µM) | 16.4 (≈ 34.2 µM)
CN(C)[C@@H]1C(O)=C(C(N)=O)C(=O)[C@@]2(O)C(O)=C3C(=O)c4c(O)cccc4[C@@](C)(O)[C@H]3C[C@@H]12 [TETRACYCLINE] | 1.5 (≈ 3.38 µM) | 1.2 (≈ 2.7 µM) | 3.9 (≈ 8.78 µM)
